Test system: passive cutaneous anaphylaxis (PCA)
Test: Inhibitory effect on passive cutaneous anaphylaxis (PCA) in rats
Assay type: in vivo, rat (male Wistar)
Settings: Rattus norvegicus; 20 mg/kg, oral, 1 hour before antigen challenge; read-out: Inhibition (PCA in rats)
Protocol: (1) Inhibitory effect on passive cutaneous anaphylaxis (PCA) in rats:
This test was carried out by the method of Perper et al. [cf.
Male Wistar rats (130-180 g) were injected with 0.1 ml of a dilute solution of mouse antiserum to egg albumin in two sites of the shaved ventral skin. Forty-eight hours later each rat was challenged by an intravenous injection of 2 mg of the antigen together with 1 ml of a 0.5% Evan's blue saline solution. The rats were sacrificed 30 minutes after the challenge. The area of the blueing lesions was measured on the undersurface of the skin. The average value of the two lesions of each rat was regarded as the response of the rat. Test compounds in a dose of 20 mg/kg, dissolved or suspended in a 0.5% aqueous tragacanth solution, were administered orally 1 hour before the antigen challenge. The inhibitory rate was determined by comparing the responses of the rats given each test compound with those of the rats given only a 0.5% aqueous tragacanth solution. Each group of 3 rats was used for each test compound. The mouse antiserum to egg albumin was produced by the method of Levine and Vaz [cf. Int. Arch. Allergy Appl.

Structure (SMILES) | inhibition in vivo at 20 mg/kg [%]
O=C(C=Cc1cncc(Cl)c1)NCCCCN1CCN(C(c2ccccc2)c2ccccc2)CC1 [Example 47] | 66.4
O=C(C=CC=Cc1cccnc1)NCCCCN1CCN(C(c2ccccc2)c2ccccc2)CC1 [Example 85] | 66.4
O=C(NCCCCN1CCN(C(c2ccccc2)c2ccccc2)CC1)/C(=C/c1cccnc1)c1ccccc1 [Example 79] | 58
CC/C(=C\c1cccnc1)C(=O)NCCCCN1CCN(C(c2ccccc2)c2ccccc2)CC1 [Example 5, N-[3-(3-pyridyl)-2-ethylacryloyl]-4-(4-diphenylmethyl-1-piperazinyl)butylamine sesquifumarate] | 67.8
Cc1ccc(C(c2ccccc2)N2CCN(CCCCNC(=O)C=Cc3cccnc3)CC2)cc1 (centres unmarked) [Example 58] | 82.9
Cc1ccc(C=CC=CC(=O)NCCCCN2CCN(C(c3ccccc3)c3ccccc3)CC2)cn1 [Example 87] | 68.8
O=C(C=Cc1cccnc1)NCCCCN1CCN(C(c2ccccc2)c2ccc(Br)cc2)CC1 (centres unmarked) [Example 64] | 55.8
Cc1ccc(C(c2ccccc2)N2CCN(CCCCNC(=O)C=Cc3ccc(C)nc3)CC2)cc1 (centres unmarked) [Example 48] | 73.9
Cc1ncccc1C=CC(=O)NCCCCN1CCN(C(c2ccccc2)c2ccccc2)CC1 [Example 53] | 68.8
O=C(C=Cc1cccnc1)NCCCCN1CCN(C(c2ccc(F)cc2)c2ccc(F)cc2)CC1 [Example 62] | 56.1
O=C(C=Cc1cccnc1)NCCCCN1CCCN(C(c2ccccc2)c2ccccc2)CC1 [Example 6, N-[3-(3-pyridyl)acryloyl]-4-(4-diphenylmethyl-1-homopiperazinyl)butylamine1/4 hydrate] | 70
O=C(C=Cc1ccc(Oc2cccc(F)c2)nc1)NCCCCN1CCN(C(c2ccccc2)c2ccccc2)CC1 [Example 29] | 60.7
C/C(=C\c1ccc(C)nc1)C(=O)NCCCCN1CCN(C(c2ccccc2)c2ccccc2)CC1 [Example 77] | 58.2
O=C(C=Cc1cncc(F)c1)NCCCCN1CCN(C(c2ccccc2)c2ccccc2)CC1 [Example 3, N-[3-(5-fluoro-3-pyridyl)acryloyl]-4-(4-diphenylmethyl-1-piperazinyl)butylamine] | 65

From US4778796A, “ω-(3-pyridyl)alkenamide derivatives and anti-allergenic pharmaceutical compositions containing same” (Dainippon Pharmaceutical Co., Ltd., priority 1985, dated 1988)
